Test results: ChEMBL document CHEMBL1153180, “Discovery and initial optimization of 5,5'-disubstituted aminohydantoins as potent beta-secretase (BACE1) inhibitors” (Bioorg Med Chem Lett, 2010)
Converted amounts (≈) assume the structure as drawn.

Experiments:
Cathepsin D [1] = target: T1, Cathepsin D (Homo sapiens, UniProt P07339); experiment: Inhibition of human cathepsin D by FRET assay
[2] = Membrane permeability by PAMPA-BBB assay; type: ADME; details: read-out: permeability
Beta-secretase 2 = target: T2, Beta-secretase 2 (Homo sapiens, UniProt Q9Y5Z0); experiment: Inhibition of human BACE2 by FRET assay
T2 sequence (Q9Y5Z0 whole entry): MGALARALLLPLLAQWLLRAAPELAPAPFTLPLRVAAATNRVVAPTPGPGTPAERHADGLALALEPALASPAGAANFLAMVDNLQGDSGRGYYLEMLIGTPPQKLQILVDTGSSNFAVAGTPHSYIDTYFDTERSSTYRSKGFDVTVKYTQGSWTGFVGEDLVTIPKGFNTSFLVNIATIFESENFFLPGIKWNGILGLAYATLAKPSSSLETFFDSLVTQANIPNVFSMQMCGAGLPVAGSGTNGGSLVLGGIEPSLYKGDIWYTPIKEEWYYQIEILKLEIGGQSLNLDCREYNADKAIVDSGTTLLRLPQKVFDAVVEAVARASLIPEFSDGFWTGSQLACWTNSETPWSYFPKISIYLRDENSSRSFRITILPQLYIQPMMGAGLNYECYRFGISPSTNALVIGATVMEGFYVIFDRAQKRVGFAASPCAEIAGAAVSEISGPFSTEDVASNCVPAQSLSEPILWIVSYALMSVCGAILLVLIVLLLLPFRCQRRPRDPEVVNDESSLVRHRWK

[3] = Solubility at pH 7.4; type: physicochemical; details: buffer
Beta-secretase 1 [4] = target: Beta-secretase 1 (Cricetulus griseus, UniProt G3IAK4); experiment: Inhibition of human recombinant APP expressed in CHO-K1 cells assessed as reduction of amyloid beta level by ELISA; type: cell-based
Sequence of Beta-secretase 1 (Cricetulus griseus, UniProt G3IAK4) (G3IAK4 whole entry): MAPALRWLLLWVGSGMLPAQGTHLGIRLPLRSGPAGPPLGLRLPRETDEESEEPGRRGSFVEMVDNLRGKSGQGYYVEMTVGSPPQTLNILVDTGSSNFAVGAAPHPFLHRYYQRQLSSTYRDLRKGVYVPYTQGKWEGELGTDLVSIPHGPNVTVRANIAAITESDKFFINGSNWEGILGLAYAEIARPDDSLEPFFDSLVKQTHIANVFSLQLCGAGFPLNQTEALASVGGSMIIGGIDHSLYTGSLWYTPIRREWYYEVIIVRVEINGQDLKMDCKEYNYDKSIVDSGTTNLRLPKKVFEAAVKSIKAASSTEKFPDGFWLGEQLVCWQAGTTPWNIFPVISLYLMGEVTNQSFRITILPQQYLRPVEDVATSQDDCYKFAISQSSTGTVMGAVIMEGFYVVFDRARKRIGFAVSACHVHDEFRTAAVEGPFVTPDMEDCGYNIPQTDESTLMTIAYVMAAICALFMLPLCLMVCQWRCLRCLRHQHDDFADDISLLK

[5] = Membrane permeability by PAMPA; type: ADME; details: read-out: permeability
Beta-secretase 1 [6] = target: T3, Beta-secretase 1 (Homo sapiens, UniProt P56817); experiment: Inhibition of human BACE1 by FRET assay
T3 sequence (P56817 whole entry): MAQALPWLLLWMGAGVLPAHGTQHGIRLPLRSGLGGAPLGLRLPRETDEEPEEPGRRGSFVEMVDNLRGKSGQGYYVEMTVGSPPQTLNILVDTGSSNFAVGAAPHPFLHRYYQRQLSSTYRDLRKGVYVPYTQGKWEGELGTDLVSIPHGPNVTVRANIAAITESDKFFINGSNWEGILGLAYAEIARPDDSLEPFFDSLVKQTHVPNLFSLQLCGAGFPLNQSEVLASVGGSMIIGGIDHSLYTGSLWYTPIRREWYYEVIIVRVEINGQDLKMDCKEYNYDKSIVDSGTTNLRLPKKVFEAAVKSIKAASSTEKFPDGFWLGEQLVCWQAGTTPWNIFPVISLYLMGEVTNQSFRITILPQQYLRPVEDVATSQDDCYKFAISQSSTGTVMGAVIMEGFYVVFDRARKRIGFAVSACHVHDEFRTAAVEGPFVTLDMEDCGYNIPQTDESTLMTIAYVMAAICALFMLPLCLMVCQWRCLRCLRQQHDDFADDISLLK

Cathepsin D [7] = target: T1, Cathepsin D; experiment: Inhibition of human cathepsin D at 100 uM by FRET assay
Beta-secretase 1 [8] = target: T3, Beta-secretase 1; experiment: Inhibition of human BACE1 at 5 uM by FRET assay

T1 sequence (P07339 65-162 limits assumed): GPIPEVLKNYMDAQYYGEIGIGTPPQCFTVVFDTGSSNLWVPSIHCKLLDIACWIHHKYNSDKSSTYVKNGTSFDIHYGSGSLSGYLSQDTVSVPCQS
T1 sequence (P07339 169-412 limits assumed): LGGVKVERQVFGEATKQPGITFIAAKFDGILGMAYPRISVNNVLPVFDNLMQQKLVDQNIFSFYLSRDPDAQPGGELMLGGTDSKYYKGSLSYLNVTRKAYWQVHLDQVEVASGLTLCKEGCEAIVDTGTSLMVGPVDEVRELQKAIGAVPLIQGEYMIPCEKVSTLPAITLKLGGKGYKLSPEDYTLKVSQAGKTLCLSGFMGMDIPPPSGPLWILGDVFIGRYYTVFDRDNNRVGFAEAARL

Row | SMILES | IC50 (Beta-secretase 2) [nM] | IC50 (Beta-secretase 1 [6]) [nM] | further results
1 | NC1=NC(c2ccccc2)(C2CCCCC2)C(=O)N1Cc1ccccc1 (stereo not drawn) | 570 | 1240 | –
2 | CN1C(=O)C(c2cccc(NC(=O)c3ccc4c(c3)OCO4)c2)(C2CCCCC2)N=C1N (stereo not drawn) | 1150 | 380 | –
3 | COCCC(=O)Nc1cccc(C2(C3CCCCC3)N=C(N)N(C)C2=O)c1 (stereo not drawn) | 1850 | 7860 | –
4 | NC1=NC(c2ccccc2)(c2ccccc2)C2=NCCCN12 | – | – | inhibition (Cathepsin D [7]): 2%; Papp [2]: 8.6 ×10⁻⁶ cm/s; solubility [3]: 55 µg/mL (≈ 189 µM); EC50 (Beta-secretase 1 [4]): 16000 nM; Papp [5]: 1 ×10⁻⁶ cm/s
5 | CN1C(=O)C(c2ccccc2)(c2ccccc2)N=C1N | 770 | – | inhibition (Cathepsin D [7]): 34%; Papp [2]: 11.1 ×10⁻⁶ cm/s; solubility [3]: > 100 µg/mL; EC50 (Beta-secretase 1 [4]): 4170 nM; Papp [5]: 3 ×10⁻⁶ cm/s
6 | NC1=NC(c2ccccc2)(C2CCCCC2)C(=O)N1CCCO (stereo not drawn) | 1650 | – | inhibition (Beta-secretase 1 [8]): 56%
7 | NC1=NC(c2ccccc2)(C2CCCCC2)C(=O)N1C[C@H]1CC[C@H](C(=O)O)CC1 (stereo partly drawn) | 120 | 390 | –
8 | CN1C(=O)C(C2CCCCC2)(C2CCCCC2)N=C1N | 510 | 1080 | inhibition (Cathepsin D [7]): 33%; Papp [2]: 7.7 ×10⁻⁶ cm/s; solubility [3]: > 100 µg/mL; EC50 (Beta-secretase 1 [4]): 1030 nM; Papp [5]: 2.9 ×10⁻⁶ cm/s

Further compounds by falling IC50 (Beta-secretase 2), results first:

Row | IC50 (Beta-secretase 2) [nM] | IC50 (Beta-secretase 1 [6]) [nM] | SMILES | further results
9 | 510 | 990 | CN1C(=O)C(c2ccccc2)(C2CCCCC2)N=C1N (stereo not drawn) | inhibition (Cathepsin D [7]): 38%; IC50 (Cathepsin D [1]): 24000 nM; Papp [2]: 12.8 ×10⁻⁶ cm/s; solubility [3]: > 100 µg/mL; EC50 (Beta-secretase 1 [4]): 810 nM; Papp [5]: 7.2 ×10⁻⁶ cm/s
10 | 490 | 1360 | COc1cccc(C(=O)Nc2cccc(C3(C4CCCCC4)N=C(N)N(C)C3=O)c2)c1 (stereo not drawn) | –
11 | 490 | 2850 | CCCC(=O)Nc1cccc(C2(C3CCCCC3)N=C(N)N(C)C2=O)c1 (stereo not drawn) | –
12 | 410 | 1080 | NC1=NC(c2ccccc2)(C2CCCCC2)C(=O)N1Cc1cc(F)cc(F)c1 (stereo not drawn) | –
13 | 310 | 950 | NC1=NC(c2ccccc2)(C2CCCCC2)C(=O)N1CCCCCC(=O)O (stereo not drawn) | –
14 | 270 | 1390 | CCCCCCN1C(=O)C(c2ccccc2)(C2CCCCC2)N=C1N (stereo not drawn) | –
15 | 180 | – | CN1C(=O)C(c2cccc(NC(=O)c3cccn3C)c2)(C2CCCCC2)N=C1N (stereo not drawn) | –
16 | 170 | 1040 | NC1=NC(c2ccccc2)(C2CCCCC2)C(=O)N1CC1CCCO1 (stereo not drawn) | –
17 | 40 | – | COCC(=O)Nc1cccc(C2(C3CCCCC3)N=C(N)N(C)C2=O)c1 (stereo not drawn) | –
18 | 30 | – | Cc1ccoc1C(=O)Nc1cccc(C2(C3CCCCC3)N=C(N)N(C)C2=O)c1 (stereo not drawn) | IC50 (Cathepsin D [1]): 17100 nM; Papp [2]: 13.7 ×10⁻⁶ cm/s; solubility [3]: 41 µg/mL (≈ 104 µM); EC50 (Beta-secretase 1 [4]): 180 nM; Papp [5]: 1.4 ×10⁻⁶ cm/s
19 | 20 | 100 | CN1C(=O)C(c2cccc(NC(=O)c3ccco3)c2)(C2CCCCC2)N=C1N (stereo not drawn) | –
